Experimental data: ChEMBL document CHEMBL5331133, “Discovery of AZD4747, a Potent and Selective Inhibitor of Mutant GTPase KRASG12C with Demonstrable CNS Penetration” (J Med Chem, 2023); call rule not given here

What was measured:
[1] = Lipophilicity, logD of compound at 7.4; details: octanol/water, pH 7.4, logD
[2] = […] stability in rat hepatocyte assessed as intrinsic clearance measured per million of cells; assay type: ADME, cell-based; details: hepatocytes
MDR1 and BCRP = assay: Efflux ratio of apparent permeability in dog MDCK cells transfected with MDR1 and BCRP at 0.1 uM; assay type: ADME, cell-based, Canis lupus familiaris
[3] = Unbound brain-to-plasma concentration ratio in Wistar Han rat at 2.3 microM/Kg, iv and measured after 4 hrs; assay type: ADME, organism-based; details: read-out: K(p,uu,brain)
[4] = Hepatic extraction ratio in CD-1 mouse at 2.3 microM/Kg, iv; assay type: ADME; details: at 2.3 µmol/kg, read-out: ERH
[5] = Volume of distribution at steady state in CD-1 mouse at 2.3 microM/Kg, iv; assay type: ADME; details: in vivo
[6] = Oral bioavailability in CD-1 mouse at 6.8 microM/Kg; assay type: ADME, organism-based; details: in vivo, at 6.8 µmol/kg
[7] = Observed clearance in Wistar Han rat at 1.1 to 2.3 microM/Kg, iv; assay type: ADME; details: in vivo, dose 1.1-2.3 µM/Kg
[8] = Hepatic extraction ratio in Wistar Han rat at 1.1 to 2.3 microM/Kg, iv; assay type: ADME; details: dose 1.1-2.3 µM/Kg, read-out: ERH
[9] = Volume of distribution at steady state in Wistar Han rat at 1.1 to 2.3 microM/Kg, iv; assay type: ADME; details: in vivo, dose 1.1-2.3 µM/Kg, read-out: Vdss
[10] = Half life in Wistar Han rat at 1.1 to 2.3 microM/Kg, iv; assay type: ADME; details: in vivo, dose 1.1-2.3 µM/Kg
[11] = Oral bioavailability in Wistar Han rat at 2.3 to 6.8 microM/Kg; assay type: ADME, organism-based; details: in vivo, dose 2.3-6.8 µM/Kg
[12] = Observed clearance in Beagle dog at 1.1 microM/Kg, iv; assay type: ADME, Canis lupus familiaris; details: in vivo
[13] = Hepatic extraction ratio in Beagle dog at 1.1 microM/Kg, iv; assay type: ADME, Canis lupus familiaris; details: at 1.1 µmol/kg, read-out: ERH
[14] = Volume of distribution at steady state in Beagle dog at 1.1 microM/Kg, iv; assay type: ADME, Canis lupus familiaris; details: in vivo, read-out: Vdss
[15] = Half life in Beagle dog at 1.1 microM/Kg, iv; assay type: ADME, Canis lupus familiaris; details: in vivo
[16] = Oral bioavailability in Beagle dog at 2.3 microM/Kg; assay type: ADME, organism-based, Canis lupus familiaris; details: in vivo, at 2.3 µmol/kg
[17] = Unbound brain-to-plasma concentration ratio in Wistar Han rat at 2.3 microM/Kg, iv and measured after 1 hrs in presence of pretreatment with elacridar for 0.5 hrs; assay type: ADME, organism-based; details: with elacridar (pretreatment for 0.5 hrs, dose not stated), read-out: K(p,uu,brain)
[18] = Unbound brain-to-plasma concentration ratio in Beagle dog at 170 to 680 microM/Kg, po QD for 15 days and measured 2 hrs last dose; assay type: ADME, organism-based, Canis lupus familiaris; details: dose 170-680 µM/Kg, time 15 day, read-out: K(p,uu,brain)
[19] = Unbound brain-to-plasma concentration ratio in iv dosed Cynomolgus monkey administered as […] compound by HPLC analysis; assay type: ADME, organism-based, Macaca fascicularis; details: read-out: K(p,uu,brain)
[20] = Hepatic blood flow in CD-1 mouse at 2.3 microM/Kg, iv; assay type: ADME
[21] = Hepatic blood flow in Wistar Han rat at 1.1 to 2.3 microM/Kg, iv; assay type: ADME; details: dose 1.1-2.3 µM/Kg
[22] = Hepatic blood flow in Beagle dog at 1.1 microM/Kg, iv; assay type: ADME, Canis lupus familiaris
[23] = Drug distribution in iv dosed Cynomolgus monkey brain administered as […] compound and assessed as radioactivity and measured 5 to 123 min post dose by PET imaging analysis; assay type: ADME, organism-based, Macaca fascicularis; details: in vivo, time 5-123 min
NCI-H358 [24] = assay: Antiproliferative activity against human NCI-H358 cells harboring KRAS G12C mutant cultured as 3D spheroids assessed as reduction in cell proliferation incubated for 3 days by CellTiter-Glo 3D reagent based assay; assay type: functional; details: NCI-H358, 72 h
NCI-H358 [25] = assay: Antiproliferative activity against human NCI-H358 cells harboring KRAS G12C mutant cultured as […] assessed as reduction in cell proliferation incubated for 3 days by CellTiter-Glo reagent based assay; assay type: functional; details: NCI-H358, 72 h
A549 = assay: Antiproliferative activity against human A549 cells harboring KRAS G12S mutant cultured as 3D spheroids assessed as reduction in cell proliferation incubated for 3 days by CellTiter-Glo 3D reagent based assay; assay type: functional; details: A549, 72 h
[26] = Inhibition of KRAS/MAPK pathway in human NCI-H358 cells harboring KRAS G12C mutant assessed as decrease in p90RSK phosphorylation incubated for 2 hrs by immunofluorescence assay; assay type: cell-based; details: NCI-H358, 2 h
[27] = Inhibition of KRAS/MAPK pathway in human PC-9 cells harboring wild-type KRAS assessed as decrease in p90RSK phosphorylation incubated for 2 hrs by immunofluorescence assay; assay type: cell-based; details: PC-9, 2 h
[28] = Inhibition of KRAS/MAPK pathway in human Calu-6 cells harboring KRAS Q61K mutant assessed as decrease in p90RSK phosphorylation incubated for 2 hrs by immunofluorescence assay; assay type: cell-based; details: Calu-6, 2 h
[29] = Toxicity in athymic nude mouse xenografted with human NCI-H358 cells harboring KRAS G12C mutant assessed as body weight change at 10 to 100 mg/kg, po for 21 days; assay type: organism-based; details: in vivo, 504 h, dose 10-100 mg/kg, time 21 day
[30] = Free drug concentration in athymic nude mouse plasma xenografted with human NCI-H358 cells harboring KRAS G12C mutant at 30 to 100 mg/kg, po and measured upto 24 hrs; assay type: ADME, organism-based; details: in vivo, dose 30-100 mg/kg
GTPase KRas = GTPase KRas (Homo sapiens, UniProt P01116, G12C)
Sequence of GTPase KRas (P01116 whole entry G12C): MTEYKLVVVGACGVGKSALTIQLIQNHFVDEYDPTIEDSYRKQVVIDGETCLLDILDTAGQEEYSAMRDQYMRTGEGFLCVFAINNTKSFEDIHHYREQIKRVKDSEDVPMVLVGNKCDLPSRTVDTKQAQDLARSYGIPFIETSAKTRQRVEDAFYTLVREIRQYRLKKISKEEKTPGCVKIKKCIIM

Mus musculus [31] = organism: Mus musculus; details: dose 10-30 mg/kg, route po, time 3.0 hrs
Mus musculus [32] = organism: Mus musculus; details: dose 10-30 mg/kg, route po, time 6.0 hrs
in vitro = details: human, liver microsomes, CLH
Description: Microsomal stability in human liver microsomes assessed as intrinsic clearance

C=CC(=O)N1CCN2Cc3cc(C#CC)c(-c4c(O)cccc4Cl)c(F)c3OC[C@H]2C1
logD [1]: 2.9 | CLH [2]: 34 µL/min | efflux ratio at 0.1 µM (MDR1 and BCRP): 1.1 | Kp uu at 4 h [3]: 0.11 | hepatic extraction ratio [4]: 0.52 | Vdss [5]: 2.9 L/kg | bioavailability [6]: 58% | clearance [7]: 54 mL/min/kg | hepatic extraction ratio [8]: 0.75 | Vd [9]: 1.7 L/kg | half-life [10]: 0.56 h | bioavailability [11]: 18% | clearance [12]: 10 mL/min/kg | hepatic extraction ratio [13]: 0.19 | Vd [14]: 1.2 L/kg | half-life [15]: 1.7 h | bioavailability [16]: 63% | Kp uu at 1 h [17]: 1 | Kp uu at 360 h [18]: 0.7 | Kp uu [19]: 1.6 | QH [20]: 152 mL/min/kg | QH [21]: 72 mL/min/kg | QH [22]: 55 mL/min/kg | Drug uptake [23]: Active | IC50 (NCI-H358 [24]): 12 nM | IC50 (NCI-H358 [25]): 360 nM | IC50 (A549): 23300 nM | IC50 [26]: 65 nM | IC50 [27]: > 30000 nM | IC50 [28]: > 30000 nM | Activity [29]: Non-Toxic | Cp(f) [30]: 40 nM | IC50 (GTPase KRas): 15 nM | inhibition (Mus musculus [31]): Dose-Dependent Effect | inhibition (Mus musculus [32]): Dose-Dependent Effect | microsomal CLint (in vitro): 15 µL/min/mg
